According to the NIST ThermoML archive (doi:10.1016/j.jct.2013.09.035):

Test: wn = mass fraction of the nth substance listed
Details: Liquid, Vibrating tube method, w2 = 0.5

CCOC(F)(F)C(F)(C(F)(F)F)C(F)(F)F [nonafluoroisobutyl ethyl ether] + CCOC(F)(F)C(F)(F)C(F)(F)C(F)(F)F
Details	mass density [kg/m3]
283.47 K, 10000 kPa	1482.27
283.48 K, 100 kPa	1457.82
283.48 K, 1000 kPa	1460.24
283.48 K, 3000 kPa	1465.3
283.48 K, 5000 kPa	1470.22
283.48 K, 25000 kPa	1513.47
283.48 K, 30000 kPa	1522.25
283.49 K, 15000 kPa	1493.18
283.49 K, 20000 kPa	1503.4
283.49 K, 40000 kPa	1538.97
283.49 K, 50000 kPa	1553.61
283.49 K, 80000 kPa	1591.2
283.49 K, 90000 kPa	1602.13
283.49 K, 100000 kPa	1612.51
283.5 K, 60000 kPa	1567.59
283.5 K, 70000 kPa	1579.58
293.33 K, 40000 kPa	1520.74
293.33 K, 50000 kPa	1536.34
293.34 K, 100 kPa	1433.67
293.34 K, 3000 kPa	1442.2
293.34 K, 5000 kPa	1447.74
293.34 K, 10000 kPa	1460.66
293.34 K, 25000 kPa	1493.61
293.34 K, 80000 kPa	1575.81
293.35 K, 15000 kPa	1472.51
293.35 K, 20000 kPa	1483.44
293.35 K, 70010 kPa	1563.65
293.35 K, 100000 kPa	1597.56
293.36 K, 1000 kPa	1436.34
293.36 K, 30000 kPa	1503.18
293.36 K, 60000 kPa	1550.72
293.36 K, 90000 kPa	1586.86
303.23 K, 100 kPa	1410.99
303.23 K, 1000 kPa	1413.95
303.23 K, 3000 kPa	1420.34
303.23 K, 5000 kPa	1426.43
303.23 K, 10000 kPa	1440.51
303.23 K, 15000 kPa	1453.28
303.23 K, 30000 kPa	1485.94
303.23 K, 40000 kPa	1504.31
303.23 K, 70000 kPa	1549.38
303.23 K, 90000 kPa	1573.69
303.23 K, 100000 kPa	1584.73
303.24 K, 20000 kPa	1464.95
303.24 K, 25000 kPa	1475.81
303.24 K, 50000 kPa	1520.78
303.24 K, 60000 kPa	1535.65
303.24 K, 80000 kPa	1561.98
313.14 K, 40000 kPa	1487.04
313.15 K, 25000 kPa	1456.84
313.15 K, 50000 kPa	1504.3
313.15 K, 60000 kPa	1519.95
313.16 K, 15000 kPa	1432.86
313.16 K, 20000 kPa	1445.3
313.16 K, 30000 kPa	1467.53
313.17 K, 1000 kPa	1390.04
313.17 K, 5000 kPa	1403.68
313.17 K, 10000 kPa	1418.95
313.17 K, 100000 kPa	1571.77
313.18 K, 100 kPa	1386.8
313.18 K, 3000 kPa	1397.04
313.18 K, 90000 kPa	1559.98
313.19 K, 70000 kPa	1535.1
313.19 K, 80000 kPa	1547.94
323.03 K, 70000 kPa	1522.41
323.03 K, 79990 kPa	1535.93
323.03 K, 90000 kPa	1548.47
323.03 K, 100000 kPa	1560.39
323.04 K, 15000 kPa	1415.6
323.04 K, 20000 kPa	1429.06
323.04 K, 25000 kPa	1441.36
323.04 K, 30000 kPa	1452.73
323.04 K, 40000 kPa	1473.17
323.04 K, 50000 kPa	1491.32
323.04 K, 60000 kPa	1507.67
323.05 K, 100 kPa	1365.33
323.05 K, 1000 kPa	1368.99
323.05 K, 3000 kPa	1376.71
323.05 K, 5000 kPa	1384.07
323.05 K, 10000 kPa	1400.75
332.93 K, 80000 kPa	1522.17
332.93 K, 90000 kPa	1535.21
332.93 K, 100000 kPa	1547.28
332.94 K, 15000 kPa	1395.61
332.94 K, 20000 kPa	1409.99
332.94 K, 25000 kPa	1423.08
332.94 K, 30000 kPa	1435.1
332.94 K, 40000 kPa	1456.69
332.94 K, 50000 kPa	1475.63
332.94 K, 60000 kPa	1492.7
332.94 K, 70000 kPa	1508.09
332.95 K, 100 kPa	1340.66
332.95 K, 1000 kPa	1344.7
332.95 K, 3000 kPa	1353.32
332.95 K, 5000 kPa	1361.37
332.95 K, 10000 kPa	1379.59
342.83 K, 100 kPa	1316.31
342.83 K, 3000 kPa	1330.5
342.84 K, 1000 kPa	1320.87
342.84 K, 5000 kPa	1339.38
342.85 K, 10000 kPa	1359.29
342.85 K, 15000 kPa	1376.59
342.85 K, 20000 kPa	1391.96
342.86 K, 25000 kPa	1405.93
342.86 K, 30000 kPa	1418.67
342.86 K, 40000 kPa	1441.37
342.87 K, 60000 kPa	1479.04
342.87 K, 69990 kPa	1494.97
342.87 K, 80000 kPa	1509.52
342.88 K, 50000 kPa	1461.22
342.88 K, 90000 kPa	1522.96
342.88 K, 100000 kPa	1535.5
352.77 K, 3000 kPa	1307.3
352.78 K, 1000 kPa	1296.47
352.78 K, 5000 kPa	1317.18
352.78 K, 10000 kPa	1339.03
352.78 K, 15000 kPa	1357.74
352.78 K, 20000 kPa	1374.27
352.78 K, 25000 kPa	1389.09
352.78 K, 30000 kPa	1402.65
352.78 K, 40000 kPa	1426.56
352.78 K, 50000 kPa	1447.34
352.78 K, 60000 kPa	1465.76
352.79 K, 70000 kPa	1482.51
352.79 K, 80000 kPa	1497.6
352.79 K, 90000 kPa	1511.48
352.79 K, 100000 kPa	1524.4
362.72 K, 1000 kPa	1270.63
362.72 K, 3000 kPa	1282.75
362.73 K, 5000 kPa	1293.79
362.73 K, 10000 kPa	1317.75
362.73 K, 15000 kPa	1338.07
362.73 K, 20000 kPa	1355.77
362.73 K, 25000 kPa	1371.52
362.73 K, 30000 kPa	1385.83
362.73 K, 40000 kPa	1410.97
362.73 K, 50000 kPa	1432.73
362.73 K, 60000 kPa	1451.97
362.73 K, 70000 kPa	1469.11
362.73 K, 80000 kPa	1484.73
362.73 K, 90000 kPa	1499.1
362.73 K, 100000 kPa	1512.38
